Patent US12637468B2, “Substituted [1,2,4]triazolo[4,3-b]pyridazines as GABAA receptor modulators” (SHANGHAI SIMR BIOTECHNOLOGY CO., LTD., priority 2019, dated 2026)
In brackets after ≈: the same amount, converted by molar mass.

Legend:
[1] = Thermodynamic solubility in simulated intestinal fluid (TS in FaSSIF); assay type: physicochemical; conditions: thermodynamic from solid, 37° C.
Summary of the method: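 About 0.3 mg solid shaken in 1.5 mL FaSSIF-V2 at 1000 rpm, 37° C, 4 hours, in duplicate, then filtered. Filtrate quantified by HPLC-UV against 1 μM-200 μM standards diluted from 10 mM DMSO stock.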

[2] = Pharmacokinetic experiment on rats: brain entry ratio (brain tissue/plasma concentration ratio); assay type: in vivo; conditions: rat, male SD rats, po 10 mg/kg, Table 7
Protocol: The drug concentration ratio of plasma and brain tissue in the pharmacokinetic experiment on rats was used to evaluate the entry of compounds into brain. All rats fasted overnight before administration; the test compounds were dissolved and administered orally (po) to male SD rats, with 3 rats in each group. After administration of the test compounds, blood was collected by jugular vein puncture at 0.5 hours with about 0.25 mL per sample. The whole brain was taken at the same time. The plasma and brain tissue drug concentration were determined by LC-MS/MS method, and the pharmacokinetic parameters were calculated by Phoenix WinNonlin7.0. The dosage was 10 mg/kg, and the vehicle was 5% CMC-Na aqueous solution.

[3] = Rat liver microsome stability (RLM) experiment; assay type: in vitro ADME; conditions: rat liver microsomal stability, Table 4; 0.5 mg protein/mL, NADPH, 37° C., 0-45 min
Protocol: Effect embodiment 3 Rat liver microsome stability (RLM) experiment
Rat liver microsomes (Xenotech, item No. R1000, lot No. 1310030), 100 mM potassium phosphate buffer solution (pH 7.4), 10 mM magnesium chloride.
Compound preparation: 5 μL of compound DMSO mother liquor (10 mM) was added to 495 μL of methanol to obtain an intermediate solution with a compound concentration of 100 μM. Then 50 μL of the intermediate solution was taken and dissolved in 450 μL of potassium phosphate buffer solution to obtain a test solution with a final concentration of 10 μM.
NADPH regeneration system (concentration of isocitrate dehydrogenase 1 unit/mL).
Liver microsomes (final concentration 0.5 mg protein/mL).
Reaction termination solution: cold acetonitrile containing 100 ng/mL Tolbutamide and 100 ng/mL Labetalol as an internal standard.
• (1) Preparation of buffer solution: • Buffer solution A: 1.0 L of 0.1 M potassium phosphate buffer solution containing 1.0 mM EDTA • Buffer solution B: 1.0 L of 0.1 M dipotassium phosphate buffer solution containing 1.0 mM EDTA • Buffer solution C: 0.1 M potassium phosphate buffer, 1.0 mM EDTA, pH 7.4, titrated with 700 mL of buffer solution B and buffer solution A, monitored by pH meter. • (2) Preparation of reference substance (ketanserin) and concentration of administration solution of the test substance:
[…]: […] 10 mM DMSO reference substance stock solution and test substance stock solution were added to 190 μL of ACN, respectively. 1.5 μM administration solution (containing 0.75 mg/mL liver microsomes): […] administration solution and 18.75 μL of 20 mg/mL liver microsomes were added to 479.75 μL of buffer C on a wet ice. • (3) NADPH was added to buffer solution C to obtain a NADPH stock solution (6 mM). • (4) 30 μL of 1.5 μM administration solution (containing 0.75 mg/mL of liver microsomes) was taken on the wet ice and added to the wells of the test plate at different time points (0-, 5-, 15-, 30-, 45-min), respectively. • (5) Firstly, 135 μL of ACN containing IS was added to the wells of a 0 min test plate, and then 15 μL of the NADPH stock solution (6 mM) was added. • (6) The test plate at other time points and the NADPH stock solution were pre-heated in a 37° C. water bath for 5 minutes. • (7) 15 μL of the NADPH stock solution (6 mM) was taken and added to a pre-incubated test plate, and the reaction was started and timed. • (8) At 5 min, 15 min, 30 min and 45 min, 135 μL of CAN containing IS was added to the corresponding test plate respectively, and the test was completed. • (9) Test plates were shaken with a shaker (IKA, MTS 2/4) for 10 min (600 rpm/min) and then centrifuged for 15 min (Thermo Multifuge×3R, 5594 g). • (10) 50 μL of supernatant from each well was added to a 96-well sample plate containing 50 μL of ultrapure water (Millipore, ZMQS50F01), and the samples were analyzed by LC/MS.

solubility thermodynamic at 4 h [1] [µg/mL]	Kp at 0.5 h [2]	RLM [3] [µL/min/mg]	SMILES
300 (≈ 702 µM)	0.01	0	COCCOCc1ccc(COc2nn3c(-c4cc(C)on4)nnc3cc2OC)nn1 [Embodiment 166]
85.4 (≈ 199 µM)	0.047	14	COCCCOc1ccc(COc2nn3c(-c4noc(C)n4)nnc3cc2OC)nn1 [Embodiment 129]
189 (≈ 460 µM)	0.02	5	COc1cc2nnc(-c3cc(C)on3)n2nc1OCc1ccc(OC2COC2)nn1 [Embodiment 153]
44 (≈ 100 µM)	0.0243	23	COc1cc2nnc(-c3cc(C)on3)n2nc1OCc1ccc(OC2CCOCC2)nn1 [Embodiment 152]
118 (≈ 253 µM)	0.032	6	COc1cc2nnc(-c3cc(C)on3)n2nc1OCc1ccc(C2(F)CN(C3COC3)C2)cn1 [Embodiment 128]
95.4 (≈ 200 µM)	0.0442	22	COc1cc2nnc(-c3cc(C)on3)n2nc1OCc1ccc2c(n1)CCN(C1CCOCC1)C2 [Embodiment 186]
176 (≈ 361 µM)	0.0293	15	COc1cc2nnc(-c3cc(C)on3)n2nc1OCc1ccc2c(n1)CCN(Cc1cc(C)on1)C2 [Embodiment 187]
239 (≈ 511 µM)	0	9	COc1cc2nnc(-c3cc(C)on3)n2nc1OCc1ccc2c(n1)CCN(C(CO)CO)C2 [Embodiment 185]
177 (≈ 416 µM)	0.0257	1	COc1cc2nnc(-c3cc(C)on3)n2nc1OCc1ccc(OC2CCOC2)nn1 (stereo not drawn) [Embodiment 154]
30.2 (≈ 71.4 µM)	0.0179	10	COCc1cn2nc(COc3nn4c(-c5cc(C)on5)nnc4cc3OC)ccc2n1 [Embodiment 213]
197 (≈ 438 µM)	0.0045	0	COc1cc2nnc(-c3cc(C)on3)n2nc1OCc1ccc2c(n1)CCN(C1COC1)C2 [Embodiment 84, 3-(7-Methoxy-6-((6-(oxetan-3-yl)-5,6,7,8-tetrahydro-1,6-naphthyridin-2-yl)methoxy)-[1,2,4]triazolo[4,3-b]pyridazin-3-yl)-5-methylisoxazole]
38.9 (≈ 83.9 µM)	0.0133	10	COc1cc2nnc(-c3cc(C)on3)n2nc1OCc1ccc2c(n1)CN(C1CCOCC1)C2 [Embodiment 253]
175 (≈ 456 µM)	0.02	1	COCc1ccc(COc2nn3c(-c4cc(C)on4)nnc3cc2OC)nn1 [Embodiment 151]
246 (≈ 625 µM)	0.0441	6	COc1cc2nnc(-c3cc(C)on3)n2nc1OCc1ccc2c(n1)CN(C)C2 [Embodiment 160, 3-(7-Methoxy-6-((6-methyl-6,7-dihydro-5H-pyrrolo[3,4-b]pyridin-2-yl)methoxy)-[1,2,4]triazolo[4,3-b]pyridazin-3-yl)-5-methylisoxazole]
